Results as given in PubChem BioAssay (NCI).
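In this assay, cells in 96-well plates receive the compound at five concentrations for 48 hours. Endpoints are linearly interpolated between the surrounding concentrations. TGI: concentration producing complete growth inhibition.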

Tests used:
Assay in all cases: DTP human tumour cell line panel, 48 h
[1] = tested on: 786-0 renal
[2] = tested on: CCRF-CEM leukemia
[3] = tested on: EKVX NSCLC
[4] = tested on: HS 578T breast
[5] = tested on: M14 melanoma
[6] = tested on: MDA-MB-435
[7] = tested on: MDA-N
[8] = tested on: MOLT-4 leukemia
[9] = tested on: NCI-H23 lung
[10] = tested on: NCI-H522 lung
[11] = tested on: OVCAR-3 ovarian
[12] = tested on: SNB-19 CNS
[13] = tested on: SR leukemia
[14] = tested on: T-47D breast
[15] = tested on: U251 CNS
[16] = tested on: UACC-257 melanoma
[17] = tested on: UACC-62 melanoma
[18] = tested on: UO-31 renal

Structure (SMILES) | TGI [1] [µM] | TGI [2] [µM] | TGI [3] [µM] | TGI [4] [µM] | TGI [5] [µM] | TGI [6] [µM] | TGI [7] [µM] | TGI [8] [µM] | TGI [9] [µM] | TGI [10] [µM] | TGI [11] [µM] | TGI [12] [µM] | TGI [13] [µM] | TGI [14] [µM] | TGI [15] [µM] | TGI [16] [µM] | TGI [17] [µM] | TGI [18] [µM]
Cc1ccc(C(=O)O)c(/C=C2\Cc3ccc(C)cc3C2=O)c1 | > 100 | > 100 | > 100 | > 100 | > 100 | > 100 | > 100 | > 100 | > 100 | > 100 | > 100 | > 100 | > 100 | > 100 | > 100 | > 100 | > 100 | > 100
C=CCn1c(N)c(C#N)c(C#N)c1CCC | > 100 | > 100 | > 100 | > 100 | > 100 | > 100 | > 100 | > 100 | > 100 | > 100 | > 100 | > 100 | > 100 | > 100 | > 100 | > 100 | > 100 | > 100
Cc1cccc(Cl)c1NCC(O)CN1CCN(C)CC1 (stereo not drawn) | > 100 | > 100 | > 100 | > 100 | > 100 | > 100 | > 100 | > 100 | > 100 | > 100 | > 100 | > 100 | > 100 | > 100 | > 100 | > 100 | > 100 | > 100
COc1ccc(Cn2c3c(cc(OC(C)=O)c2=O)Cc2ccccc2-3)cc1 | 12.8 | > 50 | 28.3 | > 50 | 17.9 | > 50 | > 50 | 28.8 | 28.5 | 15.1 | > 50 | > 50 | 28 | > 50 | 26.3 | 9.87 | 22.3 | 15.9
Cc1ccc2c(ccc(/C=C/c3ccc(O)c4ncccc34)[n+]2C)c1 | 26.7 | > 70 | 76.6 | > 100 | 40.3 | > 52.1 | > 44.9 | > 82.2 | 40.7 | 27.1 | 10.4 | 36.9 | > 35.7 | > 32.1 | 26.8 | 24.2 | 46.5 | > 49.3
COC(=O)C1Cc2cc3c(cc2C1=O)CCC3 (stereo not drawn) | > 100 | > 100 | > 100 | > 100 | > 100 | > 100 | > 100 | > 100 | > 100 | > 100 | > 100 | > 100 | > 100 | > 100 | > 100 | > 100 | > 100 | > 100
COC(=O)c1csc([C@@H](OC(=O)[C@H](C)[C@H](CCCC(C)(Cl)Cl)OC(=O)c2csc([C@H](O)CO)n2)C(C)C)n1 | 28.3 | 34.8 | 33.4 | 6.65 | 31.6 | 26.8 | 21.3 | 32.2 | 30.9 | 32.9 | 30.8 | 26.8 | 32.2 | 36.5 | 32 | 23.1 | 24.3 | 19.9
CCCCC1(NN=C2CCCCC2)C(=O)N(c2ccccc2)N(c2ccccc2)C1=O | > 100 | 40.7 | > 100 | > 100 | > 100 | > 100 | > 100 | 66 | > 100 | > 100 | > 100 | > 100 | 32.2 | > 100 | > 100 | > 100 | > 100 | > 100
NC(N)=NS(=O)(=O)c1ccc(NNc2c3ccccc3nc3ccccc23)cc1 | 25.5 | 25.4 | 34.3 | 93.6 | 26.8 | 33.9 | 28.4 | 2.85 | 36.4 | 17.5 | 15.7 | 37.3 | 13.7 | 41.9 | 24.2 | 46.1 | 35.3 | 66.7
CCCCCCCC(CC(=O)NC(CO)C(=O)NC(CO)CC(C)C)OC(=O)CC(CCCCCCC)OC(=O)CC(CCCCCCC)OC1OC(C)C(O)C(OC2OC(C)C(OC(C)=O)C(O)C2O)C1O (stereo not drawn) | 18.5 | 14.2 | 28.2 | 18.7 | 13.8 | 19.4 | 14 | 12.2 | 22 | 24.7 | 24.2 | 18.3 | 6.22 | 23.1 | 14.7 | 12 | 19 | 28.8
O=C1OC(CCCN2CCCCC2)(c2ccccc2)CC12CCCC2 (stereo not drawn) | > 100 | > 100 | > 100 | > 100 | 34.3 | > 100 | > 100 | > 100 | > 100 | > 100 | > 100 | > 100 | > 100 | > 100 | > 100 | 48.7 | > 100 | > 100
